Results: patent publication CN107531679A, “芳香酰胺类衍生物、其制备方法及其在医药上的应用” (Jiangsu Hengrui Medicine Co Ltd, priority 2016, dated 2017)
“Also recorded” adds a separate entry of the source.

Tests used:
RORγ = molecular target: T1, RORγ (Homo sapiens, UniProt P51449); test: TR-FRET RORγ coactivator assay (LanthaScreen); details: RORγ LBD
T1 sequence (P51449 269-508 limits assumed): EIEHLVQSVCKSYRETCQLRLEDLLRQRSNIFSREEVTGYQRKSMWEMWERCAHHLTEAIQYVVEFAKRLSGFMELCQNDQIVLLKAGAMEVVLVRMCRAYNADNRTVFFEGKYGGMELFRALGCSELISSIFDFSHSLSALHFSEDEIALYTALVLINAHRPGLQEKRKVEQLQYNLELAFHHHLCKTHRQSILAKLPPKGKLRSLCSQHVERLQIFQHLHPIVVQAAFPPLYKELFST

[1] = system: MC38 mouse colon tumour [MC38小鼠结肠肿瘤]; test: In vivo efficacy: MC38 colon tumour growth in syngeneic C57BL/6 mice; details: for TGI (tumour growth inhibition rate): MC38 in C57BL/6 mice

Row | SMILES | effect on RORγ in vitro activity (mode of modulation, in words) (RORγ) | also measured
1 | CCS(=O)(=O)c1ccc(CNC(=O)c2ccc3c(c2)cc(Cc2ccc(C(F)(F)F)cc2)n3C(C)C)cc1 [实施例14, N-(4-(乙磺酰基)苄基)-1-异丙基-2-(4-(三氟甲基)苄基)-1H-吲哚-5-甲酰胺] | 表现出抑制的效果 | 
2 | CCS(=O)(=O)c1ccc(CNC(=O)c2ccc3c(c2)cc(Cc2ccc(Cl)cc2C(F)(F)F)n3CCF)cc1 [实施例30, 2-(4-氯-2-(三氟甲基)苄基)-N-(4-(乙磺酰基)苄基)-1-(2-氟乙基)-1H-吲哚-5-甲酰胺] |  | TGI (tumour growth inhibition rate) ([1]; Example 30 (12.5 mg/kg) combined with anti-mouse PD-1 monoclonal antibody (5 mg/mouse)): 68%; synergy in words ([1]; Example 30 combined with PD-1 antibody, MC38 colon tumour model): 较强的协同效应; also recorded: 较强的协同作用; biological activity in vivo in words (RORγ activation versus inhibition) ([1]; MC38 colon tumour model, conclusion of the applicant): 具有与RORγ激活(而非抑制)一致的生物活性; TGI (tumour growth inhibition rate) ([1]; single agent, 12.5 mg/kg, twice daily, 21 days): 34%; antitumour effect in words ([1]; single agent, MC38 colon tumour model): 表现出抑瘤活性
3 | CCS(=O)(=O)c1ccc(CNC(=O)c2ccc3c(c2)cc(Cc2cccc(C(F)(F)F)c2)n3C(C)C)cc1 [实施例17, N-(4-(乙磺酰基)苄基)-1-异丙基-2-(3-(三氟甲基)苄基)-1H-吲哚-5-甲酰胺] | 表现出抑制的效果 | 
4 | CCc1ccccc1Cc1cc2cc(C(=O)NCc3ccc(S(=O)(=O)CC)cc3)ccc2n1C(C)C [实施例10, 2-(2-(乙基苄基)-N-(4-(乙磺酰基)苄基)-1-异丙基-1H-吲哚-5-甲酰胺] | 表现出激动的效果 | 
5 | CCS(=O)(=O)c1ccc(CNC(=O)c2ccc3c(c2)cc(Cc2ccc(OC(F)(F)F)cc2)n3C(C)C)cc1 [实施例18, N-(4-(乙磺酰基)苄基)-1-异丙基-2-(4-(三氟甲氧基)苄基)-1H-吲哚-5-甲酰胺] | 表现出抑制的效果 | 
6 | CCS(=O)(=O)c1ccc(CNC(=O)c2ccc3c(c2)cc(Cc2ccc(C(F)(F)F)cc2F)n3C(C)C)cc1 [实施例15, N-(4-(乙磺酰基)苄基)-2-(2-氟-4-(三氟甲基)苄基)-1-异丙基-1H-吲哚-5-甲酰胺] | 表现出抑制的效果 | 
7 | CCS(=O)(=O)c1ccc(CNC(=O)c2ccc3c(c2)cc(Cc2ccc(F)cc2C(F)(F)F)n3C(C)C)cc1 [实施例4, N-(4-(乙磺酰基)苄基)-2-(4-氟-2-(三氟甲基)苄基)-1-异丙基-1H-吲哚-5-甲酰胺] | 表现出激动的效果 | 
